“Also recorded” adds a separate entry of the source.
Tests used:
[1] = test system: human aortic vascular smooth muscle cell line; experiment: spontaneous proliferation of human aortic vascular smooth muscle cell line; type: cell-based; settings: MV8608 10^-8M, MV8612 10^-8M, nifedipine 10^-7M, Figure 28
[2] = test system: T-type Ca^2+ current; experiment: whole-cell voltage clamp, T-type Ca2+ current in heart cells; type: cell-based; settings: 10^-9M to 10^-7M, n=7
Procedure: (§1) Single cells of different types in culture were prepared from biopsies of human, chick and rabbit. Known and accepted methods for the isolation of fast Na^+ current, T, L and R-type Ca^2+ channels as well as delayed outward K^+ current were used (Bkaily 1994, supra).
(§2) The compounds to be tested are added to the appropriate extracellular solution after recording a stable ionic current or normal steady-state level of [Ca]n and [Ca]n The effect of different concentrations of compounds are tested on the different type of current and [Ca]i of the different cell types. The effect of each concentration of the compounds in function of the time of exposure are then determined. Once the steady-state effect is reached, the second concentration is added, etc.
In another series of experiments (n=7), the effect of different concentrations of MV8608 were tested on the T-type Ca^2+ current (lCa) using the whole-cell voltage clamp technique and classical experimental conditions described elsewhere by the inventors (Bkaily G. et al., 1991, supra; 1992, supra; 1993, supra). […] As it can be seen in that figure, the inset effect of MV8608 in T-type ICa is immediate.

[3] = test system: R-type Ca^2+ channel; experiment: cell attached single channel patch clamp, R-type Ca2+ channel in human aortic vascular smooth muscle cell line; type: cell-based
Procedure: Also, for the R-type Ca^2+ channel current, the effect of the compounds are tested on the R-type Ca^2+ channel amplitude, voltage dependency and probability of opening, by using the cell-attached patch clamp technique (Bkaily 1994, supra; 1996, supra) and intra and extra patch pipette application of the drug.
In another series of experiments (n=7), using the cell attached patch clamp technique (Bkaily G. 1994, supra; Bkaily G. et al., 1996, supra), the effect of 10^-7M of MV8608 on the R-type Ca^2+ channel in human aortic vascular smooth muscle cell line was tested. […] In a second series of experiments (n=3), the patch pipette solution was free of MV8608 and after recording the single channel activities at different voltages, MV8608 (final concentration of 10^-7M) was applied to the extra-patch pipette solution containing 140mM KCI (where the rest of the cell is bathing). This experiment was designed to verify whether MV8608 crossed the cell membrane and if so, whether its effect from the internal side of the channel under the patch is the same as that when applied at the outer side thereof. […] Such a pattern of increase of probability of opening and the open duration accompanied with the sporadic decrease of the single channel current amplitude has never been observed when MV8608 was applied at the outer side of the single channel under the patch pipette.
In another series of experiments (n=7), the effect of 10^-7M of MV8612 was tested on the R-type Ca^2+ in human aortic VSM cells, using the single channel cell attached recording technique and intra and extra patch pipette application of drugs.
In one series of experiments (n=3), MV8612 (total concentration, 10^-7M) was only applied to the patch pipette. […] As for MV8608, in one series of experiments (n=4), MV8612 (10^-7M) was only applied to the extra-patch pipette, in order to verify if the compound penetrates into the cytosol and if so, how it affects the R-type Ca^2+ channel activity.

[4] = writhe responses in mice (acetic acid, acetylcholine, kaolin); type: in vivo; settings: 2.7 to 27 mol/kg, i.p.
Source text: The antinociceptive actions of compound MV 8612 and MV 8608 were investigated in different models of nociception in mice as reported previously (Vaz et al., 1996, J. Pharmacol. Exp. Ther. 278:304-312).

[5] = mouse paw oedema; type: in vivo, mice; settings: i.p.
Procedure: (§3) In this experiment (N =5 to 6 animals per group), the anti-oedemagenic action of compounds MV 8608 and MV 8612 against bradykinin and several mediators which are reported to be involved in the inflammatory processes, was evaluated. The procedures used to perform these experiments have been reported elsewhere (Neves et al., 1993, Eur. J. Pharmacol. 243:213-219; Campos et al., 1995, Br. J. Pharmacol. 114:1005-1013; Campos et al., 1996, Br. J. Pharmacol. 117:793-798; Eur. J. Pharmacol. 316:227-286). […] As reported previously, in rats treated […] prior to a systemic injection of LPS, both B1 and B2 kinin selective agonists caused marked oedema formation (Figures 37C and D (Campos et al., 1996, supra)).
When tested in mice, MV 8612 (40 to 160 nmol/paw) inhibited bradykinin and carrageenan-induced paw oedema in mice in a dose-dependent manner (Figures 46A and B).

[6] = test system: L-type Ca^2+ channel; experiment: whole-cell voltage clamp, L-type ICa of heart cells of chick embryos; type: cell-based
Procedure: as §1, §2
In another series of experiments (n=5), the effect of different concentrations of MV8608 (10^-11 to 10^-6M) were tested on the L-type ICa of heart cells of chick embryos using the whole-cell and experimental conditions and protocols described elsewhere by the inventors (Bkaily G. et al., 1993, supra). As for the T-type ICa' the L-type ICa was not affected by 10^-11 to 10^-10M MV8608.
In another series of experiments (n=4), we tested the effect of MV8612 on the L-type Ca^2+ current (ICa) in chick embryonic heart cells using the whole-cell voltage clamp technique referred to above. Superfusion with 10^-9M of MV8612 decreased ICa amplitude by 10% and increasing the concentration of the compound up to 10^-8M further decreased the current amplitude by 25%. Higher concentration of MV8612 (10^-7M) decreased the ICa amplitude by 62%.

[7] = rat paw oedema; type: in vivo, rats
Procedure: as §3

[8] = test system: TTX-sensitive fast Na^+ current; experiment: whole-cell voltage clamp, TTX-sensitive fast Na+ current in single heart cell (MV8608); type: cell-based; settings: 10^-11M to 10^-7M, n=5
Procedure: as §1, §2
In one series of experiments (n=5), the effect of different concentrations of MV8608 (10^-11M to 10^-7M) on the TTX-sensitive fast Na^+ current were tested using the whole-cell voltage clamp technique and experimental conditions reported elsewhere (Bkaily et al., 1988, supra; 1993, supra).

[9] = 100 nmol/paw, rats treated 30 days prior (text LPS, Figure 37 BCG)
[10] = 10 and 100 nmol/paw co-injected
[11] = 10 and 100 nmol/paw, dose-dependant

Substance: (15R, 16R, 20S)-14, 16:15,20:16,21-triepoxi-15,16-seco 14β, 17α-pregn-5-ene-3β, 15-diol [MV8608]
- spontaneous proliferation [1]: significantly decreased
- T-type ICa amplitude [2]: no effect; also recorded: relative weak depressing effect
- single channel conductance of R-type Ca^2+ channel ([3]; 10^-7M applied in the patch pipette): without affecting
- single channel amplitude and probability of opening of the single R-type Ca^2+ channel ([3]; 10^-7M applied in the patch pipette, 10^-6M nifedipine present): decreased the single channel amplitude and probability of opening
- single channel current amplitude ([3]; 10^-7M applied to the extra-patch pipette solution): spontaneous decrease and release of the blockade
- opening of the R-type channel (probability, duration, frequency) ([3]; 10^-7M applied to the extra-patch pipette solution (140mM KCl)): increased the probability and duration of opening
- antinociceptive action in the same model of pain (writhing) [4]: only partial or even no antinociceptive action
- paw oedema induced by histamine [5]: dose-related inhibition
- paw oedema induced by serotonin [5]: dose-related inhibition
- bradykinin-induced paw oedema ([5]; 30 min prior): unaffected
- ICa amplitude (L-type), further change ([6]; 5 x 10^-7M): a further slight increase
- decrease of ICa amplitude (L-type) ([6]; 10^-9M): 10%
- L-type ICa ([6]; 10^-11 to 10^-10M): not affected
- oedema induced by prostaglandin E2 (PGE2) ([7]; 100 nmol/paw): partially inhibited
- oedema induced by substance P ([7]; 100 nmol/paw): unaffected
- paw oedema induced by PAF ([7]; 100 nmol/paw): consistently inhibited
- bradykinin-induced rat paw oedema [7, 9]: significantly inhibited
- des-Arg^9-BK-induced rat paw oedema [7, 9]: significantly inhibited
- carrageenan-induced paw oedema ([7]; 10 and 100 nmol/paw): significantly prevented
- dextran-induced paw oedema [7, 10]: significantly prevented
- histamine-induced paw oedema [7, 10]: significantly prevented
- serotonin-induced paw oedema [7, 10]: significantly prevented
- paw oedema induced by des-Arg^9-bradykinin ([7]; 10 and 100 nmol/paw co-injected, animals treated with LPS): dose-related inhibition
- oedema formation induced by subplantar injection of ovalbumin ([7]; 10 and 100 nmol/paw, animals actively sensitised): inhibited significantly
- bradykinin-induced hindpaw oedema ([7]; 10 and 100 nmol/paw, animals treated with LPS): no significant effect
- potentiation of paw oedema by low dose of des-Arg^9-BK plus PAF [7, 11]: prevented the potentiation
- potentiation of paw oedema by low dose of des-Arg^9-BK with PGE2 [7, 11]: prevented the potentiation
- effect on the TTX-sensitive fast Na^+ current [8]: no effect
